# Data published in patent US20040115614A1, “Electrophysiology assay methods” (priority 2002, published 2004).
# Values joined by “and” are separate entries in the source; they are usually repeats but may differ in a detail not shown here. Equal values may be shown once. Read-outs that look alike come from different tables or passages of the source.
# Key:
# [1] = test system: voltage-gated sodium channels; type: cell-based, human
# Na^+ channels = type: cell-based, human; conditions: read-out: Tetrodotoxin IC50
# [2] = Protocol: The amplitude and rate of the observed depolarization was reduced by the removal of extracellular Na^+ concentration. […] This reduction effect was more pronounced in the absence of extracellular Na^+ and in cells that were not pre-incubated with the compound.
compound,measurement,setting,value
Clc1ccccc1C(c1ccccc1)(c1ccccc1)n1ccnc1 [Clotrimazole],Rate (% change/ s),"[1]; 1 μM, 30 min pre-incubation, 8 V train of 750 μs pulses, 8 pulses per s for 3 s",0.124 ± 0.024 % change/ s
same,Amplitude (% max),"[1]; 1 μM, 30 min pre-incubation, 8 V train, % of maximal depolarization with 50 mM KCl",33.92 ± 0.320 % max
"NC1=N[C@H](O)[C@H]2[C@H]3O[C@]4(O)O[C@@H]([C@@H](O)[C@@]2(N1)[C@@H]4O)[C@]3(O)CO [TTX, tetrodotoxin]",Amplitude (% max),[1],24.260 ± 0.290 % max
same,Rate (% change/ s),[1],0.001 ± 0.001 % change/ s
same,effect on voltage-induced depolarizations,[1],blocked the depolarizations in a dose-dependent manner
same,voltage-induced changes in plasma membrane potential,[1],completely abolished
same,IC50,[1]; read-out: IC50 for block of voltage-induced depolarizations,~9 nM
same,IC50,Na^+ channels,9.5 nM and 6.69 nM
COc1ccc(CCN(C)CCCC(C#N)(c2ccc(OC)c(OC)c2)C(C)C)cc1OC (stereo not shown) [Verapamil],Amplitude (% max),[1],32.84 ± 0.330 % max
same,Rate (% change/ s),[1],0.141 ± 0.014 % change/ s
COc1cc(N)c(Cl)cc1C(=O)NC1CCN(CCCOc2ccc(F)cc2)CC1OC (stereo not shown) [cisapride],KCl-induced plasma membrane depolarization,[2],reduced
Charybdotoxin,Rate (% change/ s),"[1]; 100 nM, 30 min pre-incubation, 8 V train of 750 μs pulses, 8 pulses per s for 3 s",0.115 ± 0.013 % change/ s
same,Amplitude (% max),"[1]; 100 nM, 30 min pre-incubation, 8 V train, % of maximal depolarization with 50 mM KCl",34.09 ± 0.326 % max
